In US5525625A (priority 1995, dated 1996):

Assays:
[1] = target: E. coli histidine kinase NRII (Escherichia coli, UniProt P0AFB5); test: Kinase selectivity: E. coli histidine kinase NRII; assay type: biochemical; details: 50 μM concentration
RSV/RAT-1 [2] = test: Monolayer growth, RSV/RAT-1; assay type: cell-based; details: read-out: Monolayer Growth IC50
Protocol: (§1) Cells were plated into multi-well plates at 10 to 20,000 cells/mL. Forty-eight hours after seeding, compounds were added to the cell growth medium and incubation was continued for 2 additional days. Cells were then removed from the wells by incubation with trypsin and enumerated with a Coulter counter. Growth in soft-agar.

EGFR/Swiss 3T3 [3] = test: Monolayer growth, EGFR/Swiss 3T3; assay type: cell-based; details: EGFR/Swiss 3T3, anchorage dependent
Protocol: as §1

K-Ras/Balb [4] = test: Growth in soft-agar, K-Ras/Balb; assay type: cell-based; details: Mus musculus, anchorage independent (soft agar clonogenicity)
Protocol: (§2) Cells were seeded into 35-mm dishes at 5 to 10,000 cells/dish using growth medium containing 0.3% agar. After chilling to solidify the agar, cells were transfered to a 37° C. incubator. After 7 to 10 days growth, visible colonies were manually enumerated with the aid of a dissecting microscope.

[5] = test system: Protein kinase C (rat brain homogenate c-PKC mixture); test: Kinase selectivity: Protein kinase C; assay type: biochemical; details: 50 μM concentration
3T3-L1 adipocyte cells [6] = test: Insulin-stimulated synthesis of glycogen; assay type: cell-based, murine; details: 10 μM concentration
K562 [7] = test: Monolayer growth, K562; assay type: cell-based; details: Homo sapiens; K562, anchorage dependent
Protocol: as §1

EGFR/Swiss 3T3 [8] = test: Growth in soft-agar, EGFR/Swiss 3T3; assay type: cell-based; details: EGFR/Swiss 3T3, anchorage independent (soft agar clonogenicity)
Protocol: as §2

MEK [9] = target: T1, MEK (Homo sapiens, UniProt Q02750); assay type: biochemical
T1 sequence (Q02750 whole entry): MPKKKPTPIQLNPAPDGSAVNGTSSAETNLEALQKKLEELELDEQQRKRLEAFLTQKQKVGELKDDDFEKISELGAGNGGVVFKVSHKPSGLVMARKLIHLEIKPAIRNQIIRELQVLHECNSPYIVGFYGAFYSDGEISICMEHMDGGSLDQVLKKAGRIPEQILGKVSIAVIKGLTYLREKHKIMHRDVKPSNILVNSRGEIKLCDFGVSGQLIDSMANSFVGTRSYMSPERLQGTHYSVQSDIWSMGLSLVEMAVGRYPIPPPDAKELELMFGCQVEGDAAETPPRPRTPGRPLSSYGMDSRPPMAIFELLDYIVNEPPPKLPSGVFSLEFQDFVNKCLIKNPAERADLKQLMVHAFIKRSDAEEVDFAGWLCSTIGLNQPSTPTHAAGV

RAF = RAF (Homo sapiens, UniProt P04049); test: Kinase selectivity: RAF; assay type: biochemical; details: 50 μM concentration
Chain of RAF (P04049 whole entry): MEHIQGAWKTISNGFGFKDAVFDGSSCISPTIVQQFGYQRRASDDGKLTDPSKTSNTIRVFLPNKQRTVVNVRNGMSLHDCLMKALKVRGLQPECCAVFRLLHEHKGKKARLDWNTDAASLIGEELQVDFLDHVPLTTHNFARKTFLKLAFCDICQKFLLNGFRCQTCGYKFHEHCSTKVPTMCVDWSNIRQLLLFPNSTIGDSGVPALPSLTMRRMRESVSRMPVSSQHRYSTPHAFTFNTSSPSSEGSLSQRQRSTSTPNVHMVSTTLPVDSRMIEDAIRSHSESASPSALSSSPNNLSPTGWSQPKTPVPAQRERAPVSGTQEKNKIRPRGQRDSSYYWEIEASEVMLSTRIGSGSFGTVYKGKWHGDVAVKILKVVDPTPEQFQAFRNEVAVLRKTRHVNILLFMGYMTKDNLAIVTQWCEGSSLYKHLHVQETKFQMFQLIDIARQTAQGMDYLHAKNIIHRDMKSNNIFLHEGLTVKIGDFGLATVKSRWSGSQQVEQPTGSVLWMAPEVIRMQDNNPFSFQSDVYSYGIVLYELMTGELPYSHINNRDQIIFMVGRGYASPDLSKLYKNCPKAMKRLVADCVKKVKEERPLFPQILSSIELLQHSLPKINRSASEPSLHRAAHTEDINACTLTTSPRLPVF

v-Raf/3Y1 [10] = test: Monolayer growth, v-Raf/3Y1; assay type: cell-based; details: v-Raf/3Y1, anchorage dependent
Protocol: as §1

MAP kinase [11] = test: In vitro MAP kinase assay; assay type: biochemical; details: 50 μM concentration
Protocol: Inhibitory activity was also confirmed in direct assays. For MAP kinase, 1 μg GST-MAPK was incubated with 40 μg MBP for 15 minutes at 30° C. in a final volume of 50 μL containing 50 mM Tris (pH 7.5), 10 μM MgCl2, 2 μM EGTA, and 10 μM [γ-^32 P]ATP. The reaction was stopped by addition of Laemmli SDS sample buffer and phosphorylated MBP resolved by electrophoresis on a 10% polyacrylamide gel. Radioactivity incorporated into MBP was determined by autoradiography, and subsequently by excision of the bands followed by scintillation counting.

v-Src = v-Src (Rous sarcoma virus (strain Schmidt-Ruppin A), UniProt P00524); test: Kinase selectivity: v-Src; assay type: biochemical; details: 50 μM concentration
Chain of v-Src (P00524 2-526): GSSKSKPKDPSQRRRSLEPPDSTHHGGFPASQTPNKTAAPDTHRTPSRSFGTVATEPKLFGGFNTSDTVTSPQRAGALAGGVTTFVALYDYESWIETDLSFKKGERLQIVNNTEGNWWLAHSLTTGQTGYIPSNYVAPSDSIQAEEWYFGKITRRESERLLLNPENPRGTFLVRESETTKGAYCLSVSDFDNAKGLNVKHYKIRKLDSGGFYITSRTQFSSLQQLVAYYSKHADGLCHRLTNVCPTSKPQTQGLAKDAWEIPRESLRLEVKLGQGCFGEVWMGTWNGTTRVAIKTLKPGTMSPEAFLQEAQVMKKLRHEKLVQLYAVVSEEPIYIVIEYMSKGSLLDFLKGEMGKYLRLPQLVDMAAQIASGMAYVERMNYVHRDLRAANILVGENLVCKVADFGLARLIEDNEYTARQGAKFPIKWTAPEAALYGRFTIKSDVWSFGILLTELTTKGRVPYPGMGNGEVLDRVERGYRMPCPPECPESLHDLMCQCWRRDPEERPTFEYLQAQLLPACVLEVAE

[12] = target: NGFR (trk-A) Tyrosine kinase (Homo sapiens, UniProt P04629); test: Kinase selectivity: NGFR (trk-A) Tyrosine kinase; assay type: biochemical; details: 50 μM concentration
Chain of NGFR (trk-A) Tyrosine kinase (P04629 33-796, species assumed): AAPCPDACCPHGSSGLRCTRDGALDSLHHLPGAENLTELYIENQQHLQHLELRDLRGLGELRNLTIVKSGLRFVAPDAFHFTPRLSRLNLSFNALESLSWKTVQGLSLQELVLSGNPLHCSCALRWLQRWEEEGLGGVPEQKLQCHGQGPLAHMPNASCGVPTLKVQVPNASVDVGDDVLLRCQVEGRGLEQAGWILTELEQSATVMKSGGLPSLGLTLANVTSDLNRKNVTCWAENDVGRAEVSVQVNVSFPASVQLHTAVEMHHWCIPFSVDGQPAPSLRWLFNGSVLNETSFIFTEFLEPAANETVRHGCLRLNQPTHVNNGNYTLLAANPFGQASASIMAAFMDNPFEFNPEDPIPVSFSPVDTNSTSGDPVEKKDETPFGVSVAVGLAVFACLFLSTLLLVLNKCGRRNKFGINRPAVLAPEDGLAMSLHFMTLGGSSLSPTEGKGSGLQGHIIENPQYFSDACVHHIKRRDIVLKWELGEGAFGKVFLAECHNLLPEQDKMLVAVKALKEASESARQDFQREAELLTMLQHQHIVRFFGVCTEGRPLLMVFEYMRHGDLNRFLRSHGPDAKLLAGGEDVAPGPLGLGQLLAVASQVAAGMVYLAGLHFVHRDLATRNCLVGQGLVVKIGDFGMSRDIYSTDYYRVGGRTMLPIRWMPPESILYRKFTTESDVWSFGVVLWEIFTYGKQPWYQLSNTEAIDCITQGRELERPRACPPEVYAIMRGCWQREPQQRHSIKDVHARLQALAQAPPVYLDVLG

EGFR Tyrosine kinase = EGFR Tyrosine kinase (Homo sapiens, UniProt P00533); test: Kinase selectivity: EGFR Tyrosine kinase; assay type: biochemical; details: 50 μM concentration
Chain of EGFR Tyrosine kinase (P00533 25-1210): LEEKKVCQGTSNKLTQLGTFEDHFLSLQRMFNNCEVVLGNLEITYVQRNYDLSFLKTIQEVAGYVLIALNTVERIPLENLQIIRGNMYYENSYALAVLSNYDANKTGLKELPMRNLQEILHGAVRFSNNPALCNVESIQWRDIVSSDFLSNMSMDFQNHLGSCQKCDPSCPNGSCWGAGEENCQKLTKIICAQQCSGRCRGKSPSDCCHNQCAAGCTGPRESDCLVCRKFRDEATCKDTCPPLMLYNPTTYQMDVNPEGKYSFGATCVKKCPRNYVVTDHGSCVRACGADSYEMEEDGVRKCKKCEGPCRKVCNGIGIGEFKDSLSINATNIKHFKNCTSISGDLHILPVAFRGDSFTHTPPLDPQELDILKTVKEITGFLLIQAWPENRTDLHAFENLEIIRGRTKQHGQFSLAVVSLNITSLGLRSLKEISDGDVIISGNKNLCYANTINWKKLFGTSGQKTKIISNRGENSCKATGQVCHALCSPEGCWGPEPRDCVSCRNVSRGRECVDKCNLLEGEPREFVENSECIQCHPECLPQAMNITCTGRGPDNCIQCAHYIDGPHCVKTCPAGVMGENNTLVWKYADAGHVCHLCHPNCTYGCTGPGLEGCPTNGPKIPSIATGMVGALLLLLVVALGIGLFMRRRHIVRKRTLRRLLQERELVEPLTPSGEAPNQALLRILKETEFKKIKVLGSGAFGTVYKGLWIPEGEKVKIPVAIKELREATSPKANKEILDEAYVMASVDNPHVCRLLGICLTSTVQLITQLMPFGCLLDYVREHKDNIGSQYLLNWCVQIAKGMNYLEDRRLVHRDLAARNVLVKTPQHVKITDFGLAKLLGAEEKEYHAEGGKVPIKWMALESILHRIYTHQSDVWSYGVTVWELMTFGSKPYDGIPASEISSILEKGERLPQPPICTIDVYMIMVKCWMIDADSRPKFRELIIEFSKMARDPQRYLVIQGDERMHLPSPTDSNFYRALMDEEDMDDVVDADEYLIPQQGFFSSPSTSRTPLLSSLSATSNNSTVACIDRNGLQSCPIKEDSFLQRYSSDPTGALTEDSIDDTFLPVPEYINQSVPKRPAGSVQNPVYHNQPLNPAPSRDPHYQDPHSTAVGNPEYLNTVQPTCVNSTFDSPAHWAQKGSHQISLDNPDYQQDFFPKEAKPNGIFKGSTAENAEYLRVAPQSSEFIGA

PI-3 kinase = test: Kinase selectivity: PI-3 kinase; assay type: biochemical; details: 50 μM concentration
K-Ras/NRK [13] = test: Growth in soft-agar, K-Ras/NRK; assay type: cell-based; details: anchorage independent (soft agar clonogenicity)
Protocol: as §2

K-Ras/Balb [14] = test: Monolayer growth, K-Ras/Balb; assay type: cell-based; details: Mus musculus, anchorage dependent
Protocol: as §1

3T3-L1 adipocyte cells [15] = test: Insulin-stimulated synthesis of lipid; assay type: cell-based, murine; details: 10 μM concentration
K-Ras/NRK [16] = test: Monolayer growth, K-Ras/NRK; assay type: cell-based; details: anchorage dependent
Protocol: as §1

K-Balb 3T3 = test: 3H-Thymidine incorporation, PDGF-stimulated, K-Balb 3T3; assay type: cell-based; details: K-Balb 3T3, PDGF-stimulated
Protocol: (§3) Cells were plated in multi-well plates and grown to near confluence. The media was then removed and replaced with growth media containing 1% bovine serum albumin. After 24-hour serum starvation, compounds and specific growth factors were added and incubations continued for an additional 24 hours. During the final 2 hours, 3H-thymidine was added to the medium. To terminate the incubations, the medium was removed and cell layers washed twice with ice-cold phosphate-buffered saline. After the final wash, ice-cold 5% trichloroacetic acid was added and the cells incubated for 15 minutes at room temperature. The trichloro-acetic acid solution was then removed and the cell layer washed three times with distilled water. After the final wash, the cell layer was solubilized by addition of 2% sodium dodecylsulfate. Radioactivity in this solution was determined by scintillation counting.

3T3-L1 adipocyte cells [17] = test: Insulin stimulated uptake of radiolabeled 2-deoxyglucose; assay type: cell-based, murine; details: 10 μM concentration
MAP kinase [18] = test: Whole cell MAP kinase assay, 3T3-L1 cells stimulated with insulin; assay type: cell-based, murine
Protocol: Cells were then serum-deprived overnight. Cells were exposed to the desired concentrations of compound or vehicle (DMSO) for 30 minutes, followed by addition of a growth factor, e.g., PDGF (100 ng/mL). After a 5-minute treatment with the growth factor, cells were washed with PBS, then lysed in a buffer consisting of 70 mM NaCl, 10 mM HEPES (pH 7.4), 50 mM glycerol phosphate, and 1% Triton X-100. Lysates were clarified by centrifugation at 13,000×g for 10 minutes. Five micrograms of the resulting supernatants were incubated with 10 μg microtubule associated protein-2 (Map2) for 15 minutes at 30° C. in a final volume of 25 μL containing 50 mM Tris (pH 7.4), 10 mM MgCl2, 2 mM EGTA and 30 μM [γ-^32 P]ATP. Reactions were terminated by addition of Laemmli sample buffer.

PDGFRβ Tyrosine kinase = PDGFRβ Tyrosine kinase (Homo sapiens, UniProt P09619); test: Kinase selectivity: PDGFRβ Tyrosine kinase; assay type: biochemical; details: 50 μM concentration
Chain of PDGFRβ Tyrosine kinase (P09619 33-1106): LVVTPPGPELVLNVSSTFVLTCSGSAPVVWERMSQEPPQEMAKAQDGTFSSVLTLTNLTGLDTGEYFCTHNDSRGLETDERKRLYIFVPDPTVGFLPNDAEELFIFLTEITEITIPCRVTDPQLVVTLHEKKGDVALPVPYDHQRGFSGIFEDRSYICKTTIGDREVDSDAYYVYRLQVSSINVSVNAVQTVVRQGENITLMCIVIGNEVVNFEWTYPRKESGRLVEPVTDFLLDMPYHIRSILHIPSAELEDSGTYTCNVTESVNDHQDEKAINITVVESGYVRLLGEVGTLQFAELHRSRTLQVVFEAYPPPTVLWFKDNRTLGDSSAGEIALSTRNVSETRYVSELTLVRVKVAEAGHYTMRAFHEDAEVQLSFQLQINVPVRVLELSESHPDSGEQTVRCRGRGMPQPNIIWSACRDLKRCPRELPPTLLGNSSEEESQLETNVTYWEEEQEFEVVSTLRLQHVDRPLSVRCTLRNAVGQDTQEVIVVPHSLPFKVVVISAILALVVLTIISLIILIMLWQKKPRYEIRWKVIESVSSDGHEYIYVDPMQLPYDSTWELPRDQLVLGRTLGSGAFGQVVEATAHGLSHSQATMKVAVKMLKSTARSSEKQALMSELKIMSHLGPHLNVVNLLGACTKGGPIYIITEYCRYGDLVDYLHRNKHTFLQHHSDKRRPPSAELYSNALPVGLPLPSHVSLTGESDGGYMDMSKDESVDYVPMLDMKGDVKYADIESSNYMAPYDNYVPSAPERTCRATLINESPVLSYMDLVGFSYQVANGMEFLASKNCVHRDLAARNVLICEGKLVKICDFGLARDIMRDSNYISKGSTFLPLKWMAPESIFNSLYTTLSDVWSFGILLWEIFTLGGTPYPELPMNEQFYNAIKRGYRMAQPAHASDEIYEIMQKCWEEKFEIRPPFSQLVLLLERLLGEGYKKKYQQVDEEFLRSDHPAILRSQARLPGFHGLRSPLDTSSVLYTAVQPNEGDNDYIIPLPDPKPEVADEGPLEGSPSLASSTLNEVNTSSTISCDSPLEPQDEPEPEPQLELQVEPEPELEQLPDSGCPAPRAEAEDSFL

MAP kinase [19] = test: Whole cell MAP kinase assay, PC-12 cells stimulated with NGF; assay type: cell-based; details: Rattus norvegicus, read-out: IC50, activation of MAP kinase in whole cells
Protocol: To determine if compounds were able to block activation of MAP kinase in whole cells, the following protocol was used: Cells were plated in multi-well plates and grown to confluence. Cells were then serum-deprived overnight. Cells were exposed to the desired concentrations of compound or vehicle (DMSO) for 30 minutes, followed by addition of a growth factor, e.g., PDGF (100 ng/mL). After a 5-minute treatment with the growth factor, cells were washed with PBS, then lysed in a buffer consisting of 70 mM NaCl, 10 mM HEPES (pH 7.4), 50 mM glycerol phosphate, and 1% Triton X-100. Lysates were clarified by centrifugation at 13,000×g for 10 minutes. Five micrograms of the resulting supernatants were incubated with 10 μg microtubule associated protein-2 (Map2) for 15 minutes at 30° C. in a final volume of 25 μL containing 50 mM Tris (pH 7.4), 10 mM MgCl2, 2 mM EGTA and 30 μM [γ-^32 P]ATP. Reactions were terminated by addition of Laemmli sample buffer. Phosphorylated Map2 was resolved on 7.5% acrylamide gels and incorporated radioactivity determined by autoradiography and subsequent excision of the bands followed by scintillation counting.

MEK [20] = target: T1, MEK; assay type: biochemical; details: order of addition experiments
Protocol: Incorporation of ^32 P into myelin basic protein (MBP) was assayed in the presence of a glutathione S-transferase fusion protein containing p44MAP kinase (GST-MAPK) and a glutathione S-transferase fusion protein containing p45MEK (GST-MEK). […] Compounds were assessed at 10 μM for ability to inhibit incorporation of ^32 P.
To ascertain whether compounds were inhibiting GST-MEK or GST MAPK, two additional protocols were employed. In the first protocol, compounds were added to tubes containing GST-MEK, followed by addition of GST-MAPK, MBP and [γ-^32 P]ATP. In the second protocol, compounds were added to tubes containing both GST-MEK and GST-MAPK, followed by MBP and [γ-^32 P]ATP.

v-Raf/3Y1 [21] = test: Growth in soft-agar, v-Raf/3Y1; assay type: cell-based; details: v-Raf/3Y1, anchorage independent (soft agar clonogenicity)
Protocol: as §2

K562 [22] = test: Growth in soft-agar, K562; assay type: cell-based; details: Homo sapiens; K562, anchorage independent (soft agar clonogenicity)
Protocol: as §2

RSV/RAT-1 [23] = test: Growth in soft-agar, RSV/RAT-1; assay type: cell-based; details: read-out: Agar Growth IC50
Protocol: as §2

Balb 3T3 = test: 3H-Thymidine incorporation, PDGF-stimulated, Balb 3T3; assay type: cell-based; details: Mus musculus; Balb 3T3, PDGF-stimulated
Protocol: as §3

Chain of E. coli histidine kinase NRII (P0AFB5 whole entry): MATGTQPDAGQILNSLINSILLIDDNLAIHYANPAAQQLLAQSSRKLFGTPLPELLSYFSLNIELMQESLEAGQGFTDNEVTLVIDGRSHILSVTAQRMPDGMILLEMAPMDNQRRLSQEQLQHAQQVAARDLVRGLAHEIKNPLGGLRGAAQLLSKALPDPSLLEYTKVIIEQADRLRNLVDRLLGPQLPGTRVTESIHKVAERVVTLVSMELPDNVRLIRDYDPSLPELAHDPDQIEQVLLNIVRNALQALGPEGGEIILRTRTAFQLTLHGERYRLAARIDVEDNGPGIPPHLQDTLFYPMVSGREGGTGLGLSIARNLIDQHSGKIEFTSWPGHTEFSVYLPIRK

## COc1cccc(-c2cc(=O)c3ccccc3o2)c1N [invention compound, 2-(2-amino-3-methoxyphenyl)-4-oxo-4H-[1]benzopyran]
[1]
  inhibition of E. coli histidine kinase NRII: does not appreciably inhibit
RSV/RAT-1 [2]
  IC50: > 100 µM
EGFR/Swiss 3T3 [3]
  IC50: > 100 µM
K-Ras/Balb [4]
  IC50: 1.5 µM
[5]
  inhibition of Protein kinase C: does not appreciably inhibit
3T3-L1 adipocyte cells [6]
  effect on insulin-stimulated synthesis of glycogen: does not affect
3T3-L1 adipocyte cells [6]; listed as compound
  effect on insulin-stimulated synthesis of glycogen: no effect
K562 [7]
  IC50: > 100 µM
EGFR/Swiss 3T3 [8]
  IC50: > 100 µM
MEK [9]
  competition with ATP (kinetic analysis): not competitive with ATP
RAF
  inhibition of RAF: does not appreciably inhibit
v-Raf/3Y1 [10]
  IC50: 50 µM
MAP kinase [11]
  inhibition of MAP kinase: does not appreciably inhibit
v-Src
  inhibition of v-Src: does not appreciably inhibit
[12]
  inhibition of NGFR (trk-A) Tyrosine kinase: does not appreciably inhibit
EGFR Tyrosine kinase
  inhibition of EGFR Tyrosine kinase: does not appreciably inhibit
PI-3 kinase
  inhibition of PI-3 kinase: does not appreciably inhibit
K-Ras/NRK [13]
  IC50: 2 µM
K-Ras/Balb [14]
  IC50: 25 µM
3T3-L1 adipocyte cells [15]
  effect on insulin-stimulated synthesis of lipid: does not affect
3T3-L1 adipocyte cells [15]; listed as compound
  effect on insulin-stimulated synthesis of lipid: no effect
K-Ras/NRK [16]
  IC50: 40 µM
K-Balb 3T3
  IC50: 10 µM
3T3-L1 adipocyte cells [17]
  effect on insulin stimulated uptake of radiolabeled 2-deoxyglucose: does not affect
3T3-L1 adipocyte cells [17]; listed as compound
  effect on insulin stimulated uptake of radiolabeled 2-deoxyglucose: no effect
MAP kinase [18]; Mus musculus, 3T3-L1 cells stimulated with insulin, read-out: IC50, activation of MAP kinase in whole cells
  IC50: 3 µM
MAP kinase [18]; murine 3T3-L1 adipocytes, insulin
  activation of insulin stimulated MAP kinase: does inhibit
PDGFRβ Tyrosine kinase
  inhibition of PDGFRβ Tyrosine kinase: does not appreciably inhibit
MAP kinase [19]
  IC50: 7 µM
MEK [20]
  enzyme inhibited in the cascade (MEK or MAP kinase): inhibiting MEK and not MAP kinase
v-Raf/3Y1 [21]
  IC50: 4.5 µM
K562 [22]
  IC50: 60 µM
RSV/RAT-1 [23]
  IC50: 60 µM
Balb 3T3
  IC50: 8 µM
